{"source": "patent US12440466B2", "about": "“Fatty acid derivatives for treating non-alcoholic steatohepatitis” (BASF AS, priority 2017, dated 2025)", "key": {"[1]": {"tested_on": "CDAA/high-fat fed mice", "assay": "Hepatic hydroxyproline (HYP) content, CDAA/high-fat diet induced NASH mouse model", "type": "in vivo", "text": "Mouse models that are deficient in methionine and/choline (MCD and CDAA respectively) are well established for studying the development and treatment of NASH in pre-clinical drug development. As precursors for the synthesis of phosphatidylcholine, a dietary deficiency of methionine/choline leads to an inability to synthesize hepatic lipoproteins for the export of triglyceride that results in severe hepatic steatosis, inflammation and fibrosis.\nAlthough the widely used methionine-choline deficient (MCD) diet consistently reproduces severe NASH-like hepatic inflammation and fibrosis in mice, it is also associated with severe weight-loss (loss of both skeletal muscle and fat mass). This is associated with an increased risk of death which presents major problems for long-term fibrogenesis experiments.\nIn Biological Examples 1-7, studies were performed in male C56BL/6J mice (9 weeks old). Mice were fed either choline-sufficient (CS) or choline deficient high-fat diets (31% total calories; “CDAA/high-fat”). The NASH inducing diet was instigated 6 weeks prior to the commencement of treatment in order to design the study as a treatment/reversal set-up rather than prophylaxis.\nIn Biological Examples 1-5, mice were divided into 6 experimental groups (n=9 per group) and fed either CS or CDAA/high-fat diets. After 6 weeks of either the CS- or CDAA diet, mice were orally administered Compound A or comparison Compound N, both at 2 doses, 0.15 mmol/kg bw/day (low-dose, LD) and 0.3 mmol/kg bw per day (high-dose, HD). The test substances were administered orally as admix to the high-fat diet. Hepatic fibrosis was assessed by both measurement of hydroxyproline (HYP) content and Sirius Red (SR) morphometry. Fibrosis, inflammation and metabolism related transcripts levels were measured by quantitative real-time polymerase chain reaction (qPCR)."}, "[2]": {"tested_on": "galectin-3 (Gal-3)", "assay": "Hepatic galectin-3 (Gal-3) levels by IHC in ob/ob AMLN mice", "type": "in vivo, mouse", "conditions": "8 weeks, Compound A 45, 90, 135 mg/kg", "procedure": "(§1) Obese diet-induced B6.V-Lepob/Jrj mice (ob/ob) are consistently fibrosis (liver) prone when cholesterol (2%), 40% fat (containing 18% trans-fatty acids) and 20% fructose are added to a high-caloric diet (i.e., AMLN high-fat diet). ob/ob mice on AMLN diet (termed ‘ob/ob AMLN mice’) develop steatohepatitis and fibrosis within a shorter timeframe ([…]) compared with wild-type C57BL/6 mice (AMLN mice) fed the same diet. ob/ob AMLN mice provide an obese diet-induced model of NASH that also allows the study of effects on glycemic control. Development of NASH in the ob/ob AMLN model is confirmed by biopsy.\n(§2) In Biological Examples 10, 13-14, and 16-18, studies were performed in male ob/ob mice (5 weeks old) fed an AMLN high-fat diet for 18 weeks, then randomized into 6 groups (n=10 per group) to receive either Compound A (at 3 different daily doses, 45 mg/kg, 90 mg/kg or 135 mg/kg) via diet, 30 mg/kg bw per day obeticholic acid (OCA) via diet, or no treatment (vehicle) for a further 8 weeks. Assessment of NASH related parameters and fibrosis was made at study end by quantitative immune histochemistry (IHC) measurements.\nTo assess the effects of 8 weeks treatment with either Compound A (45 mg/kg, 90 mg/kg, or 135 mg/kg) or OCA (30 mg/kg) on hepatic inflammation in ob/ob AMLN mice, IHC was performed to assess galectin-3 (Gal-3) levels."}, "[3]": {"tested_on": "LX-2 human hepatic stellate cells", "assay": "LX-2 stellate cell proliferation by BrdU incorporation", "type": "cell-based", "conditions": "LX-2 cells, 24 hours", "procedure": "Stellate cells are resident liver cells and the major cell type involved in the initiation and progression of liver fibrosis. In Biological Example 20, in vitro studies were performed on cultured human stellate cells (LX-2 cells) to assess direct effects of Compound A on these cells. Cells were treated for 24 hours with Compound A (10 μM, 25 μM, 50 μM, or 75 μM) or oleic acid (OA; 75 μM) and bromodeoxyuridine (BrdU) incorporation was assessed to determine effects on proliferation. A MTS (3-(4,5-dimethylthiazol-2-yl)-5-(3-carboxymethoxyphenyl)-2-(4-sulfophenyl)-2H-tetrazolium) assay was used to determine cell viability.\nCell proliferation of LX-2 human hepatic stellate cells treated for 24 hours with 10-75 μM of Compound A or oleic acid (OA) (75 μM) was assessed by BrdU incorporation. The results are normalised mean values ±S.E.M. of 5 independent experiments for icosabutate and 2 independent experiments for OA. […] The reduction in proliferation by Compound A was 25-34% at 24 hours whereas OA had no effect. The comparisons were made by one-way ANOVA with Dunnett's correction for multiple comparisons."}, "[4]": {"tested_on": "col1A1", "assay": "Hepatic col1A1 content by quantitative IHC in ob/ob AMLN mice", "type": "in vivo, mouse", "conditions": "8 weeks", "procedure": "as §1, §2"}, "[5]": {"tested_on": "APOE*3Leiden.CETP mice", "assay": "Hepatic free cholesterol, cholesterol ester and triglyceride content (HPTLC) in APOE*3Leiden.CETP mice", "type": "in vivo, mouse", "conditions": "ApoE*3L-CETP mice, Western diet 0.25% cholesterol, 4 weeks; Compound A LD 0.3 mmol/kg bw/day; EPA/DHA ethyl esters HD 3 mmol/kg bw/day", "text": "The APOE*3Leiden.CETP double transgenic mouse expresses a variant of the human apolipoprotein E3 (APOE3), the APOE*3Leiden, in addition to the human apolipoprotein C1 (APOC1) and CETP. […] By increasing the cholesterol content of the diet in this model, all the characteristics of human NASH develop.\nIn Biological Example 25, the effects of Compound A alone and in combination with omega-3 fatty acid were studied. APOE*3Leiden.CETP mice were placed on a semi-synthetic high fat diet (24% fat w/w) with […] w/w. After a 4-week run-in period, low-responder mice were removed from the study and the remaining mice were sub-divided into groups of 8 mice each, matched for plasma cholesterol, triglycerides, blood glucose, body weight and age (t=0) and treatment was started. To facilitate mixing of the compounds, sunflower oil was added to a total oil volume of 10 mL/kg diet. Compound A was administered at 0.3 mmol/kg bw/day whilst the omega-3 fatty acid ethyl-esters (85% w/w EPA/DHA ethyl-esters) were administered at 3.0 mmol/kg bw/day. Both Compound A and the omega-3 ethyl esters were administered orally as admix to the high-fat diet. After 4 weeks of treatment, mice were sacrificed by C02 asphyxiation, the liver was collected and the hepatic content of free cholesterol, cholesterol ester and triglyceride were measured after extraction and separation by high performance thin layer chromatography."}}, "note": "Marks after values point to notes of the source that are not given here.", "data": [{"smiles": "CC/C=C\\C/C=C\\C/C=C\\C/C=C\\C/C=C\\CCCCOC(CC)C(=O)O", "note": "(stereo not drawn) [Compound A, 2-((5Z,8Z,11Z,14Z,17Z)-icosa-5,8,11,14,17-pentaenyloxy)butanoic acid]", "values": [{"measurement": "Hydroxyproline (μg) content per 100 mg liver", "setting": "[1]; HD 0.3 mmol/kg bw per day orally as admix to diet", "result": 37, "unit": "μg HYP/per 100 mg liver"}, {"measurement": "Hydroxyproline (μg) content per 100 mg liver", "setting": "[1]; LD 0.15 mmol/kg bw/day orally as admix to diet", "result": 38, "unit": "μg HYP/per 100 mg liver"}, {"measurement": "Hydroxyproline (μg) content per liver", "setting": "[1]; high dose (HD) 0.3 mmol/kg bw per day orally as admix to diet", "result": "750** μg"}, {"measurement": "Hydroxyproline (μg) content per liver", "setting": "[1]; low dose (LD) 0.15 mmol/kg bw/day orally as admix to diet", "result": "800* μg"}, {"measurement": "Gal-3 expression level, percentage of area", "setting": "[2]", "result": "dose responsive reduction"}, {"measurement": "Gal-3 expression level, total content", "setting": "[2]; OCA 30 mg/kg", "result": "dose responsive reduction"}, {"measurement": "proliferation (BrdU incorporation) compared to OA or vehicle", "setting": "[3]; 25 μM, p<0.005", "result": "less proliferative"}, {"measurement": "proliferation (BrdU incorporation) compared to OA or vehicle", "setting": "[3]; 50 μM, p<0.0001", "result": "less proliferative"}, {"measurement": "proliferation (BrdU incorporation) compared to OA or vehicle", "setting": "[3]; 75 μM, p<0.005", "result": "less proliferative"}, {"measurement": "reduction in proliferation (BrdU incorporation)", "setting": "[3]; Compound A 25-75 μM", "result": "25-34%"}, {"measurement": "col1A1 content compared with pre-biopsy content", "setting": "[4]; Compound A 45 mg/kg", "result": "trend towards decreased col1A1 content"}, {"measurement": "col1A1 levels as a percentage of total surface area", "setting": "[4]; Compound A 45 mg/kg", "result": "not statistically significant"}, {"measurement": "col1A1 levels as a percentage of total surface area", "setting": "[4]; Compound A 90 mg/kg", "result": "significant reduction"}, {"measurement": "total col1A1 content", "setting": "[4]; Compound A 90 mg/kg", "result": "reduced"}, {"measurement": "col1A1 content compared with pre-biopsy content", "setting": "[4]; Compound A 90 mg/kg, decrease, p<0.005", "result": "statistically significant"}, {"measurement": "col1A1 content compared with pre-biopsy content", "setting": "[4]; Compound A 135 mg/kg", "result": "trend towards decreased col1A1 content"}, {"measurement": "col1A1 levels as a percentage of total surface area", "setting": "[4]; Compound A 135 mg/kg", "result": "not statistically significant"}, {"measurement": "total col1A1 content", "setting": "[4]; Compound A 135 mg/kg", "result": "reduced"}, {"measurement": "Hepatic CE", "setting": "[5]", "result": "17*"}, {"measurement": "Hepatic FC", "setting": "[5]", "result": 9.5}, {"measurement": "Hepatic TG", "setting": "[5]", "result": 58.8}]}]}
